The test system of series [1] is Human immunodeficiency virus 1. Kind of series: Antiviral activity against HIV1 infected in human MT4 cells. The class given is functional, organism-based. Particulars: Human immunodeficiency virus 1, MT4.
Series [2] deals with Human immunodeficiency virus 1. Kind of series: Antiviral activity against HIV1 3B. It counts as functional, organism-based. Particulars: Human immunodeficiency virus 1, 3B.
The test system of series [3] is Human immunodeficiency virus 2. As to the kind of experiment: Antiviral activity against HIV2 ROD. The class given is functional, organism-based. Particulars: Human immunodeficiency virus 2, ISOLATE ROD.
In series [4] the test system is Human immunodeficiency virus 1. Kind of series: Antiviral activity against HIV1 3B infected in human MT2 cells assessed as reduction in virus-induced cell death. The class given is functional. The settings on record: Human immunodeficiency virus 1, 3B.
For another series, the system named is PBL. Kind of series: Cytotoxicity against human PBL cells incubated for 4 days by MTT assay. It counts as cell-based. The settings on record: 96 h. (In general: Formazan colour is commonly taken as a measure of viable cells.)
The subject of series [5] is Human immunodeficiency virus 1. Kind of series: Antiviral activity against HIV1 3B infected in human primary lymphocytes assessed as reduction in p24 production incubated for 4 days by ELISA method. Particulars: Human immunodeficiency virus 1, 3B, 96 h. It counts as functional, organism-based. (In general: ELISA stands for enzyme-linked immunosorbent assay.)
Series [6] concerns Human immunodeficiency virus 1. Kind of series: Antiviral activity against HIV1. It counts as functional, organism-based.
The nature of series [7]: Cytotoxicity against human MT2 cells. The settings on record: read-out: TC50 (the source's name). The class given is cell-based.
Series [8] relates to Human immunodeficiency virus 1. As to the kind of experiment: Antiviral activity against HIV1 by multi-cycle antiviral assay. The class given is functional, organism-based.
Series [9] deals with Human immunodeficiency virus 1. Kind of series: Antiviral activity against HIV1 by single-cycle antiviral assay. The class given is functional, organism-based.
For series [10], the system named is Human immunodeficiency virus. As to the kind of experiment: Antiviral activity against HIV expressing raltegravir-resistant integrase mutants. The settings on record: Human immunodeficiency virus 1. It counts as functional, organism-based.
Series [11] can be described thus: Cytotoxicity against human C8166 cells. The class given is cell-based. Particulars: human, C8166 cells.
The subject of series [12] is Human immunodeficiency virus 1. Kind of series: Antiviral activity against HIV1 infected in human C8166 cells assessed as inhibition of virus replication. The class given is functional, organism-based. Particulars: Human immunodeficiency virus 1, C8166.
Series [13] concerns Human immunodeficiency virus 1. As to the kind of experiment: Antiviral activity against HIV1 JRFL. Particulars: Human immunodeficiency virus 1, JRFL. It counts as functional, organism-based.
The subject of series [14] is Human immunodeficiency virus 1. Kind of series: Antiviral activity against HIV1 NL4-3. Particulars: Human immunodeficiency virus 1, NL4-3. The class given is functional, organism-based.
In series [15] the test system is Human immunodeficiency virus 1. As to the kind of experiment: Antiviral activity against HIV1 TLAV. It counts as functional, organism-based. Particulars: Human immunodeficiency virus 1, TLAV.
In series [16] the test system is Human immunodeficiency virus 2. As to the kind of experiment: Antiviral activity against HIV2 LAI. It counts as functional, organism-based. The settings on record: Human immunodeficiency virus 2, LAI.
Series [17] has as its system Human immunodeficiency virus 1. As to the kind of experiment: Antiviral activity against HIV1 SF162. It counts as functional, organism-based. The settings on record: Human immunodeficiency virus 1, SF162.
The test system of series [18] is Human immunodeficiency virus 1. Kind of series: Antiviral activity against HIV1 BAL. The class given is functional, organism-based. Particulars: Human immunodeficiency virus 1, BAL.
Series [19] relates to Human immunodeficiency virus 1. As to the kind of experiment: Antiviral activity against HIV1 SF2. It counts as functional, organism-based. The settings on record: Human immunodeficiency virus 1, SF2.
The test system of another series is KB. Kind of series: Cytotoxicity against human KB cells. It counts as cell-based.
Series [20] relates to Human immunodeficiency virus. As to the kind of experiment: Antiviral activity against HIV by XTT assay. It counts as functional, organism-based. Particulars: Human immunodeficiency virus 1.
Series [21] in a line: Inhibition of HIV1 LTR-mediated transcription assessed as drug level causing 50% inhibition of protein/RNA complex formation incubated for 15 mins. Set-up: species or system Human immunodeficiency virus.
Series [22] concerns Human immunodeficiency virus. Kind of series: Antiviral activity against HIV. The settings on record: Human immunodeficiency virus 1. It counts as functional, organism-based.
In series [23] the test system is Human immunodeficiency virus. As to the kind of experiment: Antiviral activity against HIV infected in human MT4 cells assessed as reduction in virus-induced cytopathogenicity. The class given is functional, organism-based. Particulars: Human immunodeficiency virus 1, MT4. A general note: Damage to the host cells serves as the signal in cytopathic effect assays.

≈ marks a conversion by molar mass, not a printed value. A value given as a limit tells only on which side of the number the result lay.

The EC50 is the concentration giving half of the maximal effect. For the compound `CCOC(=O)c1cc2c3cccc(OC)c3c3c(N)cccc3n2c1C`, the EC50 in series [1] amounted to 60 µM.

As for `N#Cc1cccc(CN2C(=O)N(Cc3ccccc3)S(=O)(=O)n3cccc32)c1`, the EC50 was 6.5 µM in series [2] and over 150 µM in [3].

As usually defined, the IC90 is the concentration at which the effect reaches the 90% level. As for `CN1C(=O)[C@H](Cc2ccc(O)cc2)n2cccc2-c2ccccc21`, the IC90 in [4] was over 0.29 µg/mL.

Take `Cn1ccc2c1C(=O)Nc1ccccc1S2`: the results for the EC50 (in the series on PBL; in series [5]) were over 434 µM and 16 µM, respectively.

Regarding `C[C@@H]1CN(C(=O)c2ccccc2)CCN1C(=O)C(=O)c1c[nH]c2cnccc12`, the EC50 in series [6] stood at 21.6 nM.

Consider `O=Cc1ccc2n1[C@@H](Cc1ccccc1)C(=O)Nc1ccccc1-2`, for which, in series [4], the IC90 was over 0.29 µg/mL.

Regarding `O=C1[C@H](Cc2ccc(O)cc2)n2cccc2-c2ccccc2N1CCc1ccc(O)cc1`, the IC90 in [4] was found to be 0.8 µg/mL (≈ 1.88 µM). Moreover, the CC50 in series [7] was 10 µg/mL (≈ 23.6 µM).

For the compound `O=C1NC(c2cccnc2)c2c(-c3ccccc3)n[nH]c21` (stereo not given), the results for the EC50 in series [8] and in series [9] were 7.5 µM and 8.2 µM, respectively.

A word on the IC50: it is the midpoint of a concentration-inhibition curve. `O=C1CC(CO)=C2C(=O)N(Cc3ccc(F)c(Cl)c3)C(=O)C2=C1O` showed an IC50 in series [10] of 6.5 µM.

In the case of `O=C1N(Cc2ccccc2Cl)c2cccn2S(=O)(=O)N1Cc1cccc(Cl)c1`, the EC50 in [2] was 8.9 µM; in [3], over 150 µM.

On to `CCOC(=O)c1ncc(O)c2c1C(=O)N(CC(c1ccccc1)c1ccccc1)C2=O`, for which the CC50 in series [11] came out at 25.2 µM. For the same compound, the EC50 in series [12] came to 3.1 µM.

Turning to `O=C(C(=O)N1CCN(C(=O)c2ccccc2)CC1)c1c[nH]c2ccccc12`, the EC50 in [13], in [14], in series [15], in series [16], in series [17] and in series [18] was 850 nM each time. For the same compound, the EC50 in series [19] amounted to 850 nM.

As for `CC1=C2C(=O)N(Cc3ccc(F)c(Cl)c3)C(=O)C2=C(O)C(=O)C1C` (stereo not given), the half-maximal inhibitory concentration (IC50) in series [10] worked out at 6.7 µM.

In [11], `CCOC(=O)c1ncc(O)c2c1C(=O)N(CCc1c[nH]c3ccccc13)C2=O` came in with a CC50 of 26.7 µM. Moreover, the EC50 in [12] amounted to 9.37 µM.

Compound `COC(=O)CCC1=C2C(=O)N(Cc3ccc(F)c(Cl)c3)C(=O)C2=C(O)C(=O)C1C(C)C` (stereo not given) returned an IC50 in [10] of 7.1 µM.

`N#Cc1ccccc1CN1C(=O)N(Cc2ccccc2)S(=O)(=O)n2cccc21`: the EC50 is 5.1 µM in series [2] and over 150 µM in series [3].

In the case of `C[C@@H]1CN(C(=O)c2ccccc2)CCN1C(=O)C(=O)c1c[nH]c2cccnc12`, the EC50 in series [6] is 1.6 nM.

For the compound `O=C(C[C@H]1C(=O)Nc2ccccc2C2CCCN21)OCc1ccccc1` (stereo not given in full), the EC50 was found to be 28.5 µM with PBL and 0.86 µM in series [5].

As to `CN1N=C(N)c2cn([C@@H]3O[C@H](CO)[C@@H](O)[C@H]3O)c3nc(-c4ccccc4)nc1c23`, the EC50 in the series on KB is over 100 µM. Moreover, it took 3000 nM to reach half-maximal inhibition in [20] (IC50).

In series [6], `C[C@@H]1CN(C(=O)c2ccccc2)CCN1C(=O)C(=O)c1c[nH]c2ncccc12` gave an EC50 of 1.7 nM.

Regarding `O=C1N(Cc2ccccc2Cl)c2cccn2S(=O)(=O)N1Cc1cccc(Br)c1`, the EC50 in [2] was 18 µM; in [3], over 150 µM.

A word on the AC50: it is the midpoint of the concentration-response curve, whichever way the signal moves. For the compound `COc1cc2c(cc1OCCC(=O)Nc1cc(C(=O)Nc3cc(C(=O)NCCC(=N)N)n(C)c3)n(C)c1)N=C[C@@H]1CCCN1C2=O`, in [21], the AC50 worked out at 20 µM.

`N#Cc1cn(COC(CO)CO)c2nc(N)nc(O)c12` gave an IC50 in series [22] of 3000 nM.

On to `COc1ccc(Nc2nc3cc(C(F)(F)F)ccc3n3cccc23)cc1OC`, for which, in series [23], the EC50 was over 27 µg/mL.

In series [11], `CCOC(=O)c1ncc(O)c2c1C(=O)N(CCc1ccc(OC)c(OC)c1)C2=O` yielded a CC50 of 33.5 µM. For the same compound, the EC50 in series [12] was 9.15 µM.

For `CN1C(=O)c2ccn(C)c2S(=O)(=O)c2ccccc21`, the EC50 was over 362 µM in the series on PBL and 14 µM in series [5].
